Laboratory results as given in patent publication US20240425545A1 (Durect Corporation, priority 2021, published 2024).
“Also recorded” adds a separate entry of the source. Where two headings read alike, the source gives them in different places.

Assays:
[1] = Experimental: Four vials were prepared and stored at 2-8° C. or […] according to Table B2. The samples were scheduled initially to pull for testing at 3 weeks and 6 weeks time points.
For appearance, each unopened vial was visually examined for color, clumping, and flowability.
Based on the molecular weights, and expected UV response factors used in this study, the expected analytical sample concentrations were within the range of the 25HC3S sodium reference standards (0.75 mg/mL to 1.25 mg/mL as 25HC3S Sodium Salt).
Samples were prepared by pipetting 20 mL of 100% methanol into each vial and mixing well, with sonication and vortexing to fully dissolve the samples for HPLC analysis.
HPLC analysis was performed.

[2] = Dynamic vapor sorption (DVS); assay type: physicochemical; conditions: for Hygroscopicity: in words, up to about 95% relative humidity
From the text: Dynamic vapor sorption data was collected on a Surface Measurement System DVS Intrinsic instrument. The samples were not dried prior to analysis. […] Data were not corrected for the initial moisture content of the sample.

[3] = remark: listed apart in the source
Experimental: Angle of repose is measured as follows. Powder is poured from a funnel onto a flat surface until a cone of powder is created. The angle of repose is calculated according to the following equation: […]
The height of the cone was estimated with calipers.

[4] = 5 mL cylinder, 300 taps
Experimental: Although there are some variations in the method of determining the compressibility index and Hausner ratio, the basic procedure is to measure the unsettled apparent volume, VO, and the final tapped volume, Vf, of the powder after tapping the material until no further volume changes occur. The compressibility index and the Hausner ratio are calculated as follows: […]
Powder was carefully poured into a 5 mL glass graduated cylinder (to contain) until it was close to or at 5.0 mL. This initial volume was recorded as Vo. The graduated cylinder was tapped on a hard surface for 200 times and the volume was recorded. The cylinder was tapped 100 times more, and the final volume Vf was recorded.

Temperature stability [1]	% Recovery of 2-8° C./3 wk vs 60° C./1 wk; 2-8° C./5 wk vs 80° C./5 wk ([1]; 3 wk) [%]	% Recovery of 2-8° C./3 wk vs 60° C./1 wk; 2-8° C./5 wk vs 80° C./5 wk ([1]; 5 wk) [%]	X-ray powder diffraction pattern after DVS ([2]; before vs after DVS, FIG. 3)	Hygroscopicity [2]	Angle of Repose ([3]; about 2 g powder, cone of 21.14 mm diameter) [degrees]	Angle of Repose Rounded Whole Number ([3]; rounded) [degrees]	Compressibility Index [4]	Hausner Ratio [4]	Weight gain (water uptake) in DVS ([2]; from 5% up to about 95% relative humidity)	SMILES	Physical and chemical solid-state stability, comments [1]	Hygroscopicity ([2]; listed as crystalline 25HC3S choline)
good temperature stability	100.8	97.3	does not appreciably change	less hygroscopic	34.9	35	42	1.72	–	C[C@H](CCCC(C)(C)O)[C@H]1CC[C@H]2[C@@H]3CC=C4C[C@@H](OS(=O)(=O)[O-])CC[C@]4(C)[C@H]3CC[C@]12C.C[N+](C)(C)CCO [25HC3S choline, 25-Hydroxy-Cholest-5-En-3-Sulfate Choline]	Stable after 5 weeks at 80 °C physically and	not appreciably hygroscopic; also recorded: less hygroscopic
–	–	–	–	–	–	–	–	–	significant water uptake	C[C@H](CCCC(C)(C)O)[C@H]1CC[C@H]2[C@@H]3CC=C4C[C@@H](OS(=O)(=O)[O-])CC[C@]4(C)[C@H]3CC[C@]12C.[Na+] [crystalline 25HC3S sodium, reference compound]	–	–
